# Patent publication US8541471B2, “Water-soluble strontium salts for use in treatment of cartilage and/or bone conditions” (Osteologix A/S, priority 2003, dated 2013)
# Where two headings read alike, the source gives them in different places.
# Columns and labels:
# [1] = not given; remark: listed apart in the source
# [2] = molecular target: T1, calcium-sensing receptor (CaR) (Homo sapiens, UniProt P41180); conditions: studies have shown; cited from earlier work
# T1 sequence (P41180 20-1078): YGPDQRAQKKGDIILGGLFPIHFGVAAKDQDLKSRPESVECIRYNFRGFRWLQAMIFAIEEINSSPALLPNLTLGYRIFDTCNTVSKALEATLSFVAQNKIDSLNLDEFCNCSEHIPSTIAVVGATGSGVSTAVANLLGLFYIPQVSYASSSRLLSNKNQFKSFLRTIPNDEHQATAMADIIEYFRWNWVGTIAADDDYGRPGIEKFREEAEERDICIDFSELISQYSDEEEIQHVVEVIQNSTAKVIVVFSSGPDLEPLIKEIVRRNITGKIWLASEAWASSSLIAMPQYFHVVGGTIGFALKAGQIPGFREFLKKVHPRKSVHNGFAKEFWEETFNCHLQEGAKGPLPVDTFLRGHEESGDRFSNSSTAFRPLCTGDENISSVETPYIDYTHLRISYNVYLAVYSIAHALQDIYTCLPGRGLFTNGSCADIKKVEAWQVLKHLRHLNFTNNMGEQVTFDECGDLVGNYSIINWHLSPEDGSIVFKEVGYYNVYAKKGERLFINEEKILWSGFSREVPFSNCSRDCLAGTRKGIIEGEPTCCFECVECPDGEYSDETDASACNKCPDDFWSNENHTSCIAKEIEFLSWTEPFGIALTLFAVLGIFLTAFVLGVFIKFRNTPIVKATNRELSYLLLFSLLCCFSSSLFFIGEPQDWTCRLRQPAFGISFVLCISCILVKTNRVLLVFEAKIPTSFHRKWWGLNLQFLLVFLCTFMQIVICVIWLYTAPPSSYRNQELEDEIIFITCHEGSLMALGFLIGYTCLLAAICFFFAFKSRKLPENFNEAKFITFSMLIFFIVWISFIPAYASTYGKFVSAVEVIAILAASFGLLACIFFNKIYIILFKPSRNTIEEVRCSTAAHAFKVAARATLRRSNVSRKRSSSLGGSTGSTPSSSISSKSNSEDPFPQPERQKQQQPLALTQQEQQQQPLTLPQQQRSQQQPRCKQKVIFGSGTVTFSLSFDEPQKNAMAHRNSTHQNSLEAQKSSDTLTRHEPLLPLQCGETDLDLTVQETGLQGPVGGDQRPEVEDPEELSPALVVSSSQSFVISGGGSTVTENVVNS
molecule,measurement,setting,value
"[Cl-].[Cl-].[Sr+2] [Chloride, strontium chloride, reference compound]",AUC,"rat, in vivo, po",7300 mg·min/L
same,time to maximum serum strontium concentration,"rats, single oral gavage",approximately 2 hours
"O=C([O-])/C=C/C(=O)[O-].[Sr+2] [Fumerate, strontium fumarate]",SOLUBILITY AT 40° C. pH 7.5,[1],977 mg/L
same,SOLUBILITY AT ROOM TEMPERATURE (22-24° C.) pH 7.5,[1],1215 mg/L
"N[C@@H](CCC(=O)[O-])C(=O)[O-].O.O.O.O.O.O.[Sr+2] [L-glutamate, strontium glutamate hexahydrate]",AUC,"female, Wistar HanTac:WH (GALAS), rat, in vivo, po",10100 mg·min/L
same,rate of metabolism (second peak of model fit),"rat, in vivo",rests longer in the serum
"O=C([O-])/C=C\C(=O)[O-].[Sr+2] [Maleate, strontium maleate]",SOLUBILITY AT 40° C. pH 7.5,[1],1457 mg/L
same,SOLUBILITY AT ROOM TEMPERATURE (22-24° C.) pH 7.5,[1],1680 mg/L
"N#Cc1c(N(CC(=O)[O-])CC(=O)[O-])sc(C(=O)[O-])c1CC(=O)[O-].[Sr+2].[Sr+2] [Ranelate, distrontium salt of 2-[N,N-di(carboxymethyl)amino]-3-cyano-4-carboxymethylthiophene-5-carboxylic acid, reference compound]",SOLUBILITY AT 40° C. pH 7.5,[1],1970 mg/L
same,SOLUBILITY AT ROOM TEMPERATURE (22-24° C.) pH 7.5,[1],890 mg/L
same,time to maximum serum strontium concentration,"rat, in vivo, po",approximately 2 hours
[Sr+2] [strontium],activity at the calcium-sensing receptor (CaR),[2],full agonist
strontium alpha-ketoglutarate [α-ketogluterate],rate of metabolism (second peak of model fit),"rats, FIGS. 9A-B",quickly metabolized
